Results: patent publication US6169091A, “Bicyclic heteroaromatic compounds as protein tyrosine kinase inhibitors” (Glaxo Wellcome Inc., priority 1995, dated 2001)
Structures can show the parent of a compound that is named as a salt.

Key:
[1] = stated without data, in contrast to the compounds of the invention; cited from earlier work
other tyrosine kinases = settings: Fry et al (Science, 265, 1093 (1994)); cited from earlier work
[2] = test system: EGF receptor tyrosine kinase; settings: Fry et al (Science, 265, 1093 (1994)); cited from earlier work
HB4a ras cells = assay: cell proliferation assay, HB4a cells transfected with ras; format: cell-based; settings: Homo sapiens, 96 h, 4 days at 37° C., methylene blue, 0.5% DMSO, control for general toxicity
Procedure: (§1) Compounds of the present invention were tested for protein tyrosine kinase inhibitory activity in a substrate phosphorylation assay and a cell proliferation assay. The cell proliferation assay uses an immortalised human breast epithelial cell line (HB4a) which has been transformed by over-expression of c-erbB-2. Growth of these cells in low serum is dependent upon the c-erbB-2 tyrosine kinase activity. The specificity of the effect of the test compounds on tyrosine kinase dependent growth over general toxicity is assessed by comparison to an HB4a cell line which has been transfected with ras. Cells are plated at 3000/well in 96-well plates in 0.1 ml medium and allowed to attach overnight. test compound is added in 0.1 ml medium, with a final concentration of 0.5% DMSO, and the plates incubated for 4 days at 37° C. The cells are then examined microscopically for evidence of morphological detransformation and cell mass is estimated by staining with methylene blue and measuring the absorbance at 620 nm. The results are shown in the second and third columns of Table 1 below as the IC50 values in nM.

c-erbB-2 = target: T1, c-erbB-2 (Homo sapiens, UniProt P04626); assay: c-erbB-2 substrate phosphorylation assay (33P-labelled γ-phosphate from ATP onto PolyGluAlaTyr); format: biochemical; settings: 1 hour, room temperature, 100 μM ATP, 10 mM MnCl2, pH 7.4, 2% DMSO; recombinant intracellular domain of c-erbB-2
T1 construct: recombinant construct of the intracellular domain of c-erbB-2 that is constitutively active; made in house
T1 sequence (P04626 676-1255 limits assumed): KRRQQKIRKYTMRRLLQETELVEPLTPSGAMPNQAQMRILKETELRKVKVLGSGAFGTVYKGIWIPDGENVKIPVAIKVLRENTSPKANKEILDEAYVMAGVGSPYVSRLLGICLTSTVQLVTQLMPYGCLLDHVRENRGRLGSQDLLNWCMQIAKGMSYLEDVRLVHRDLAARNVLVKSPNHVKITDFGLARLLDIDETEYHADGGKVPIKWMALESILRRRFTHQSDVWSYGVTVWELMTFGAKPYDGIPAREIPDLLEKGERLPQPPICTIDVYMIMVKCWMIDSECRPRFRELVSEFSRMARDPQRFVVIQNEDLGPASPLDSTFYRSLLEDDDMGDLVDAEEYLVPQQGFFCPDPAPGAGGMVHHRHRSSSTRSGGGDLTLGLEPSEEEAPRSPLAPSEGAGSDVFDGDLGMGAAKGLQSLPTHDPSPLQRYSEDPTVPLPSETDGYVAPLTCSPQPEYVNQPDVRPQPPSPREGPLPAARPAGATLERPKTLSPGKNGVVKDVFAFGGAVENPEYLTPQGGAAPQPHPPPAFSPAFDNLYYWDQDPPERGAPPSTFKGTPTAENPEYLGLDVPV
Procedure: Compounds of the present invention were tested for protein tyrosine kinase inhibitory activity in a substrate phosphorylation assay and a cell proliferation assay. The substrate phosphorylation assay uses a baculovirus expressed, recombinant construct of the intracellular domain of c-erbB-2 that is constitutively active. […] The reaction is stopped by the addition of EDTA (final concentration 0.1M) and the peptide is then precipitated onto ion exchange filter paper and the incorporated radioactivity determined. The results are shown in the first column of Table 1 below as the IC50 values in nM.

HB4a erbB-2 cells = assay: cell proliferation assay, HB4a cells transformed by over-expression of c-erbB-2; format: cell-based; settings: Homo sapiens, 96 h, low serum, 4 days at 37° C., methylene blue, 0.5% DMSO
Procedure: as §1

SMILES	in vivo activity [1]	inhibition of other tyrosine kinases (other tyrosine kinases)	inhibition of the EGF receptor tyrosine kinase [2]	IC50 (HB4a ras cells)	IC50 (c-erbB-2)	IC50 (HB4a erbB-2 cells)
COc1cc2ncnc(Nc3cccc(Br)c3)c2cc1OC	does not however exhibit good in vivo activity	micromolar or higher concentrations	picomolar concentrations	–	–	–
Clc1cc2c(Nc3ccc(OCc4ccccc4)cc3)ncnc2cn1 [Example 1, 4-(4-Benzyloxyanilino)-6-chloropyrido[3,4-]pyrimidine hydrochloride]	–	–	–	17 µM	58 nM	2700 nM
Cn1cncc1-c1cc2c(Nc3ccc(OCc4ccccc4)cc3)ncnc2cn1 [Example 2, 4-(4-Benzyloxyanilino)-6-(N-methylimidazol-5-yl)pyrido[3,4-d]pyrimidine]	–	–	–	3.7 µM	26 nM	690 nM
Cn1ccnc1-c1cc2c(Nc3ccc(OCc4ccccc4)cc3)ncnc2cn1 [Example 3, 4-(4-Benzyloxyanilino)-6-(N-methylimidazol-2-yl)pyrido[3,4-d]pyrimidine]	–	–	–	44 µM	115 nM	11000 nM
Cn1nccc1-c1cc2c(Nc3ccc(OCc4ccccc4)cc3)ncnc2cn1 [Example 4, 4-(4-Benzyloxyanilino)-6-(N-methylpyrazol-2-yl)pyrido[3,4-d]pyrimidine]	–	–	–	11 µM	124 nM	2500 nM
c1ccc(COc2ccc(Nc3ncnc4cnc(-c5ccco5)cc34)cc2)cc1 [Example 5, 4-(4-Benzyloxyanilino)-6-(furan-2-yl)pyrido[3,4-d]pyrimidine]	–	–	–	11 µM	14 nM	500 nM
CN(C)c1cc2c(Nc3ccc(OCc4ccccc4)cc3)ncnc2cn1 [Example 7, 4-(4-Benzyloxyanilino)-6-(N,N-dimethylamino)pyrido[3,4-d]pyrimidine]	–	–	–	> 50 µM	1.3 nM	300 nM
CN1CCN(c2cc3c(Nc4ccc(OCc5ccccc5)cc4)ncnc3cn2)CC1 [Example 8, 4-(4-Benzyloxyanilino)-6-(1-methylpiperazin-4-yl)-pyrido[3,4-d]pyrimidine]	–	–	–	7.5 µM	20 nM	590 nM
O=S1(=O)CCN(c2cc3c(Nc4ccc(OCc5ccccc5)cc4)ncnc3cn2)CC1 [Example 11, 4-(4-Benzyloxyanilino)-6-(thiomorpholine-1,1-dioxide-4-yl)-pyrido[3,4-d]pyrimidine]	–	–	–	37 µM	920 nM	10000 nM
CN(C)c1cc2c(Nc3ccc(Oc4ccccc4)cc3)ncnc2cn1 [Example 12, 6-N,N-Dimethylamino-4-(4-phenoxyanilino)pyrido[3,4-d]pyrimidine]	–	–	–	31 µM	24 nM	1600 nM
O=S(=O)(c1ccccc1)c1ccc(Nc2ncnc3cnc(Cl)cc23)cc1 [Example 14, 6-Chloro-4-(4-phenylsulphonylanilino)pyrido[3,4-d]pyrimidine hydochloride]	–	–	–	50 µM	900 nM	15000 nM
CN(C)c1cc2c(Nc3ccc(S(=O)(=O)c4ccccc4)cc3)ncnc2cn1 [Example 15, 6-(N,N-Dimethylamino)-4-(4-phenylsulphonylanilino)pyrido[3,4-d]pyrimidine]	–	–	–	32 µM	30 nM	570 nM
CN1CCN(c2cc3c(Nc4ccc(S(=O)(=O)c5ccccc5)cc4)ncnc3cn2)CC1 [Example 16, 6-(1-Methylpiperazin-4-yl)-4-(4-phenylsulphonylanilino)-pyrido[3,4-d]pyrimidine]	–	–	–	6.6 µM	50 nM	2400 nM
CN(C)CCN(C)c1cc2c(Nc3ccc(S(=O)(=O)c4ccccc4)cc3)ncnc2cn1 [Example 17, 6-[N-Methyl-N-(2-dimethylaminoethyl)amino]-4-(4-phenylsulphonylanilino)-pyrido[3,4-d]pyrimidine]	–	–	–	10 µM	200 nM	4400 nM
CN(CCO)c1cc2c(Nc3ccc(S(=O)(=O)c4ccccc4)cc3)ncnc2cn1 [Example 18, 6-[N-Methyl-N-(2-hydroxyethyl)amino]-4-(4-phenylsulphonylanilino)pyrido[3,4-d]pyrimidine]	–	–	–	28 µM	5 nM	150 nM
CN(C)c1cc2c(Nc3ccc(OCC4OCCO4)cc3)ncnc2cn1 [Example 20, 6-(N,N-Dimethylamino)-4-[4-(1,3-dioxolan-2-yl)methoxyanilino]pyrido[3,4-d]pyrimidine]	–	–	–	46 µM	10 nM	2400 nM
c1ccc(COc2ccc(Nc3ncnc4ccsc34)cc2)cc1 [Example 23, 4-(4-Benzyloxyanilino)thieno[3,2-d]pyrimidine hydrochloride]	–	–	–	5 µM	300 nM	2000 nM
COc1ccccc1COc1ccc(Nc2ncnc3ccsc23)cc1Cl [Example 24, 4-[3-Chloro-4-(2-methoxybenzyloxy)anilino]thieno[3,2-d]pyrimidine hydrochloride]	–	–	–	18 µM	50 nM	10000 nM
Fc1ccccc1COc1ccc(Nc2ncnc3ccsc23)cc1Cl [Example 25, 4-[3-Chloro-4-(2-fluorobenzyloxy)anilino]thieno[3,2-d]pyrimidine hydrochloride]	–	–	–	3 µM	150 nM	500 nM
Clc1cc(Nc2ncnc3ccsc23)ccc1OCc1ccccc1Br [Example 26, 4-[4-(2-Bromobenzyloxy)-3-chloroanilino]thieno[3,2-d]pyrimidine hydrochloride]	–	–	–	30 µM	230 nM	2500 nM
c1ccc(Cc2ccc(Nc3ncnc4ccsc34)cc2)cc1 [Example 28, 4-(4-Benzylanilino)thieno[3,2-d]pyrimidine hydrochloride]	–	–	–	13 µM	200 nM	3000 nM
c1ccc(Oc2ccc(Nc3ncnc4ccsc34)cc2)cc1 [Example 29, 4-(4-Phenoxyanilino)thieno[3,2-d]pyrimidine hydrochloride]	–	–	–	20 µM	110 nM	5000 nM
FC(F)(Oc1ccc(Nc2ncnc3ccsc23)cc1)c1ccccc1 [Example 30, 4-(4-(a,a-Difluorobenzyloxy)anilino)thieno[3,2-d]pyrimidine hydrochloride]	–	–	–	15 µM	860 nM	6000 nM
Cc1csc2ncnc(Nc3ccc(OCc4ccccc4F)c(Cl)c3)c12 [Example 35, 4-[3-Chloro-4-(2-fluorobenzyloxy)anilino]-5-methylthieno[2,3-d]pyrimidine hydrochloride]	–	–	–	25 µM	99 nM	8000 nM
Cc1csc2ncnc(Nc3ccc(OCC4CCCCC4)cc3)c12 [Example 36, 4-(4-Cyclohexylmethoxyanilino)-5-methylthieno[2,3-d]pyrimidine hydrochloride]	–	–	–	10 µM	500 nM	10000 nM
Cc1csc2ncnc(Nc3ccc(Oc4ccccc4)cc3)c12 [Example 37, 5-Methyl4-(4-phenoxyanilino)thieno[2,3-d]pyrimidine hydrochloride]	–	–	–	25 µM	650 nM	17000 nM
c1ccc(Oc2ccc(Nc3ncnc4scc(-c5cccs5)c34)cc2)cc1 [Example 38, 4-(4-Phenoxyanilino)-5-(2-thienyl)thieno[2,3-d]pyrimidine hydrochloride]	–	–	–	20 µM	490 nM	20000 nM
